Experimental data from patent US11739122B2, “Glycopeptide antibiotic compounds, methods for producing the same, and uses thereof” (Academia Sinica, priority 2019, dated 2023).
Values after ≈ are worked out from the molar mass of the structure shown.

Tests used:
Orf2* [1] = biological target: T1, Orf2* (Actinoplanes teichomyceticus, UniProt A0A561VD00); test: Deacetylation catalytic specificity; format: biochemical; conditions: substrate of Orf2* (WT)
MRSA ATCC BAA-39 = test: MIC, broth microdilution; format: cell-based, Staphylococcus aureus; conditions: Staphylococcus aureus
Summary of the method: (§1)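 Inoculum: 0.5 McFarland broth culture, adjusted to ~1×10^8 CFU mL^−1. Incubation 37° C, 18-24 h. Read-out: visible growth; MIC = concentration with no growth in well.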

MRSA ATCC BAA-44 = test: MIC, broth microdilution; format: cell-based, Staphylococcus aureus; conditions: Staphylococcus aureus
Summary of the method: as §1

MRSA ATCC 43300 = test: MIC, broth microdilution; format: cell-based, Staphylococcus aureus; conditions: Staphylococcus aureus
Summary of the method: as §1

MRSA ATCC BAA-38 = test: MIC, broth microdilution; format: cell-based, Staphylococcus aureus; conditions: Staphylococcus aureus
Summary of the method: as §1

MRSA ATCC 700698 hVISA = test: MIC, broth microdilution; format: cell-based, Staphylococcus aureus; conditions: Staphylococcus aureus
Summary of the method: as §1

S. aureus ATCC 29213 = test: MIC, broth microdilution; format: cell-based, Staphylococcus aureus; conditions: Staphylococcus aureus, ATCC29213
Summary of the method: as §1

MRSA ATCC 700787 VRSA = test: MIC, broth microdilution; format: cell-based, Staphylococcus aureus; conditions: Staphylococcus aureus
Summary of the method: as §1

MRSA ATCC 700789 VRSA = test: MIC, broth microdilution; format: cell-based, Staphylococcus aureus; conditions: Staphylococcus aureus
Summary of the method: as §1

Orf2*T = biological target: T2, Orf2*T (Actinoplanes teichomyceticus, UniProt A0A561VD00, F193Y/S98A/V121A); test: ITC binding affinity; conditions: ITC versus Orf2*T
T2 sequence (A0A561VD00 with tags, fused parts or gaps S98A/V121A/F193Y): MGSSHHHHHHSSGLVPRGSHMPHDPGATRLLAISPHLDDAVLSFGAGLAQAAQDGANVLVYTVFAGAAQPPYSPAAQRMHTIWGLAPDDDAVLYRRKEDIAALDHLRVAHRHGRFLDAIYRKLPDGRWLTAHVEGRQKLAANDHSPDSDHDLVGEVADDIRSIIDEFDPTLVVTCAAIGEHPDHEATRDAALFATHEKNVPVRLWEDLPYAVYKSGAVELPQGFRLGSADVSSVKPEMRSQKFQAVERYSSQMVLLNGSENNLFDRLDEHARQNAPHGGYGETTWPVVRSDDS
Procedure: (§2) Isothermal Titration Calormetry (ITC) Analysis
(§3) A stock solution (50 mM) was prepared by dissolving r6,GlcNAc pseudoaglycone (9) in 50% DMSO. The 1 mM protein solutions of Orf2*, Orf2*T and Dbv27 were prepared in a 50 mM HEPES buffer solution at pH 8.0. The solution (50 mM HEPES, pH8.0 and 10% DMSO) that contained compound 9 (1 mM) or S-adenosylmethionine (SAM) (1 mM) in a 40 μL injection syringe was titrated into the Orf2*, Orf2*T or Dbv27 (0.1 mM) protein solution, which was placed in the sample cell of a 200 μL volume. Each titration consisted of 16 injections of a 2 μL4 s^−1 duration in an interval of 150 seconds. Data analysis was performed by software.

Orf2* [2] = biological target: T1, Orf2*; test: ITC binding affinity; conditions: ITC versus Orf2*
Procedure: as §2, §3

E. faecalis ATCC 29302 = test: MIC, broth microdilution; format: cell-based; conditions: Enterococcus faecalis, ATCC29302
Summary of the method: as §1

VRE ATCC 700425 (vanC) = test: MIC, broth microdilution; format: cell-based, enterococci; conditions: Enterococcus
Summary of the method: as §1

VRE ATCC 700221 (vanA) = test: MIC, broth microdilution; format: cell-based, enterococci; conditions: Enterococcus
Summary of the method: as §1

VRE ATCC 700802 (vanB) = test: MIC, broth microdilution; format: cell-based, enterococci; conditions: Enterococcus
Summary of the method: as §1

T1 sequence (A0A561VD00 entry or part of it): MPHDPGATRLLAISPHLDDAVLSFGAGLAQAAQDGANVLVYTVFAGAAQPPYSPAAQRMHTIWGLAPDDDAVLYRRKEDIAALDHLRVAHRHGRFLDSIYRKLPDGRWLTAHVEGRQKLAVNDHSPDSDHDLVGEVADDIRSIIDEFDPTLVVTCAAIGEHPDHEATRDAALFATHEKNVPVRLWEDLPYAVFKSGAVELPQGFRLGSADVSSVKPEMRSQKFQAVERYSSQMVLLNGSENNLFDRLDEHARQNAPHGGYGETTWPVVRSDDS

| kcatKm^−1 (Orf2* [1]) [M⁻¹ s⁻¹] | Structure (SMILES) | MIC (MRSA ATCC BAA-39) [µg/mL] | MIC (MRSA ATCC BAA-44) [µg/mL] | MIC (MRSA ATCC 43300) [µg/mL] | MIC (MRSA ATCC BAA-38) [µg/mL] | MIC (MRSA ATCC 700698 hVISA) [µg/mL] | MIC (S. aureus ATCC 29213) [µg/mL] | MIC (MRSA ATCC 700787 VRSA) [µg/mL] | MIC (MRSA ATCC 700789 VRSA) [µg/mL] | Kd (Orf2*T) [µM] | Kd (Orf2* [2]) [µM] | MIC (E. faecalis ATCC 29302) [µg/mL] | MIC (VRE ATCC 700425 (vanC)) [µg/mL] | MIC (VRE ATCC 700221 (vanA)) [µg/mL] | MIC (VRE ATCC 700802 (vanB)) [µg/mL] |
| --- | --- | --- | --- | --- | --- | --- | --- | --- | --- | --- | --- | --- | --- | --- | --- |
| 377300 | CC(=O)N[C@H]1[C@H](Oc2c3cc4cc2Oc2ccc(cc2Cl)[C@@H](O)[C@@H]2NC(=O)[C@H](NC(=O)[C@@H]4NC(=O)[C@H]4NC(=O)[C@@H](Cc5ccc(c(Cl)c5)O3)NC(=O)[C@H](N)c3ccc(O)c(c3)Oc3cc(O)cc4c3)c3ccc(O)c(c3)-c3c(O)cc(O)cc3[C@@H](C(=O)O)NC2=O)O[C@H](CO)[C@@H](O)[C@@H]1O [Compound 5, r4,GlcNAc Tei-pseudoaglycone] | – | – | – | – | – | – | – | – | – | – | – | – | – | – |
| – | CC(=O)N[C@H]1[C@H](O[C@@H]2c3ccc(c(Cl)c3)Oc3cc4cc(c3O)Oc3ccc(cc3Cl)C[C@H]3NC(=O)[C@H](N)c5ccc(O)c(c5)Oc5cc(O)cc(c5)[C@H](NC3=O)C(=O)N[C@H]4C(=O)N[C@H]3C(=O)N[C@@H]2C(=O)N[C@H](C(=O)O)c2cc(O)cc(O)c2-c2cc3ccc2O)O[C@H](CO)[C@@H](O)[C@@H]1O [Compound 9, r6,GlcNAc Tei-pseudoaglycone] | 0.125 (≈ 0.0892 µM) | 0.125 (≈ 0.0892 µM) | 0.25 (≈ 0.178 µM) | 0.25 (≈ 0.178 µM) | 1 (≈ 0.713 µM) | 0.25 (≈ 0.178 µM) | 0.5 (≈ 0.357 µM) | 2 (≈ 1.43 µM) | 125 ± 14 | 1420 ± 1100 | 2 (≈ 1.43 µM) | 4 (≈ 2.85 µM) | > 128 | 4 (≈ 2.85 µM) |
